Active and inactive are the calls of the source. No rule for the calls is given here.
Test system: CCRIS mutagenicity, Ames/micronucleus/aberration tests
Test: CCRIS mutagenicity studies
Settings: Method: PREINCUBATION

Measured: mutagenic call

C[N+](C)(C)CCO
inactive: Test System: AMES SALMONELLA TYPHIMURIUM, Strain/Indicator: TA98, Metabolic Activation: NONE inactive; negative | Test System: AMES SALMONELLA TYPHIMURIUM, Strain/Indicator: TA98, Metabolic Activation: RAT, LIVER, S-9, PHENOBARBITAL AND BETA-NAPHTHOFLAVONE inactive; negative | Test System: AMES SALMONELLA TYPHIMURIUM, Strain/Indicator: TA100, Metabolic Activation: NONE inactive; negative | Test System: AMES SALMONELLA TYPHIMURIUM, Strain/Indicator: TA100, Metabolic Activation: RAT, LIVER, S-9, PHENOBARBITAL AND BETA-NAPHTHOFLAVONE inactive; negative | Test System: AMES SALMONELLA TYPHIMURIUM, Strain/Indicator: TA102, Metabolic Activation: NONE inactive; negative | Test System: AMES SALMONELLA TYPHIMURIUM, Strain/Indicator: TA102, Metabolic Activation: RAT, LIVER, S-9, PHENOBARBITAL AND BETA-NAPHTHOFLAVONE inactive; negative | Test System: AMES SALMONELLA TYPHIMURIUM, Strain/Indicator: TA104, Metabolic Activation: NONE inactive; negative | Test System: AMES SALMONELLA TYPHIMURIUM, Strain/Indicator: TA104, Metabolic Activation: RAT, LIVER, S-9, PHENOBARBITAL AND BETA-NAPHTHOFLAVONE inactive; negative | Test System: AMES SALMONELLA TYPHIMURIUM, Strain/Indicator: TA1535, Metabolic Activation: NONE inactive; negative | Test System: AMES SALMONELLA TYPHIMURIUM, Strain/Indicator: TA1535, Metabolic Activation: RAT, LIVER, S-9, PHENOBARBITAL AND BETA-NAPHTHOFLAVONE inactive; negative | Test System: AMES SALMONELLA TYPHIMURIUM, Strain/Indicator: TA1537, Metabolic Activation: NONE inactive; negative | Test System: AMES SALMONELLA TYPHIMURIUM, Strain/Indicator: TA1537, Metabolic Activation: RAT, LIVER, S-9, PHENOBARBITAL AND BETA-NAPHTHOFLAVONE inactive; negative | Test System: E. COLI, Strain/Indicator: WP2UVRA/PKM101, Metabolic Activation: NONE inactive; negative | Test System: E. COLI, Strain/Indicator: WP2UVRA/PKM101, Metabolic Activation: RAT, LIVER, S-9, PHENOBARBITAL AND BETA-NAPHTHOFLAVONE inactive; negative | Test System: E. COLI, Strain/Indicator: WP2UVRA, Metabolic Activation: NONE inactive; negative | Test System: E. COLI, Strain/Indicator: WP2UVRA, Metabolic Activation: RAT, LIVER, S-9, PHENOBARBITAL AND BETA-NAPHTHOFLAVONE inactive; negative

— PubChem BioAssay AID1259407 (Chemical Carcinogenesis Research Information System (CCRIS), 2018)
